Literature values as cited in patent US20160052938A1, “SPIRO[3H-INDOLE-3,2'-PYRROLIDIN]-2(1H)-ONE COMPOUNDS AND DERIVATIVES AS MDM2-P53 INHIBITORS” (Boehringer Ingelheim International GmbH, priority 2014, published 2016).

System: acute lymphoblastic leukemia (ALL) xenograft models with mixed-lineage leukemia (MLL) rearrangement
Settings: Carol et al. 2013; cited from earlier work

For CCOc1cc(C(C)(C)C)ccc1C1=N[C@@](C)(c2ccc(Cl)cc2)[C@@](C)(c2ccc(Cl)cc2)N1C(=O)N1CCN(CCCS(C)(=O)=O)CC1 [RG-7112], the efficacy is listed as “particularly efficacious”.
